Data: publication PMC12079444, “Antagonist Targeting the Species‐Specific Fatty Acid Dehydrogenase/Isomerase FabX for Anti‐H. pylori Infection” (Advanced Science, 2025)
Values after ≈ are worked out from the molar mass of the structure shown. Read-outs that look alike come from different tables or passages of the source.

Legend:
[1] = biological target: T1, FabX (Helicobacter pylori, UniProt O25465); assay: biochemical; parameters: FabX-FabI enzyme-coupled assay, NADH consumption read-out of FabX inhibition; conditions: for inhibition at 10 µM: read-out: Inhibition (%) 10 μM; for inhibition at 1 µM: read-out: Inhibition (%) 1 μM
T1 construct: gene HP_0773; recombinant from pQE2 vector in E. coli BL21(DE3) Rosetta, Ni-NTA, HiTrap-SP, Superdex75; FMN and [4Fe-4S] cofactors
T1 sequence (O25465 1-363): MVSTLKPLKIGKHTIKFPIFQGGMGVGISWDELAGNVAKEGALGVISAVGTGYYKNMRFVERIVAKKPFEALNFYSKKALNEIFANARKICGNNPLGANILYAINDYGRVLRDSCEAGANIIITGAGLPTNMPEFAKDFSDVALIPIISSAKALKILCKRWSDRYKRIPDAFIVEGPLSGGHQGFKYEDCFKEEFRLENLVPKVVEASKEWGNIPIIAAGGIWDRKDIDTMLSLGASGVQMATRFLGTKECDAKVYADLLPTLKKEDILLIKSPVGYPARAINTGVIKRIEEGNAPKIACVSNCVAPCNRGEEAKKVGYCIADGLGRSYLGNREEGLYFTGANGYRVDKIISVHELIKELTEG
Text: To discover small molecule inhibitors targeting FabX, we performed protein thermal shift assay (PTSA) based high‐throughput screening against an in‐house chemical library of 11000 small molecule compounds, and established a multienzymatic cascade reaction system by incorporating the enoyl acyl carrier protein reductase FabI from H. pylori into the hit validation system, where FabI catalyzes the reduction of FabX catalytic product enoyl‐ACP in the fourth step of the elongation cycle, accompanying the elimination of NADH (Figure 2A,B). […] Subsequently, the inhibitory activities of these derivatives at 10 × 10^−6 and 1 × 10^−6 M were evaluated, and the structure–activity relationship (SAR) was analyzed (Figure S2, Supporting Information). In the first round of SAR, we briefly examined the influence of the substituents’ positions (C3 and C4), the electronic effects, and the polarity in the A moiety. We synthesized compounds 1a‐1l and evaluated their enzymatic activities (Table S1, Supporting Information). […] In particular, 3‐CN (1e) and 3‐COOH (1i) enhanced the inhibitory activity. We speculate that these two groups may act as hydrogen bond acceptors, forming hydrogen bonds with FabX and enhancing the interaction. We then retained the 3‐CN group in the A moiety and optimized the B moiety to investigate the 2,4‐disubstitution by synthesizing 8a‐8c (Figure 3). […] [picture] Figure S1. Schematic diagram of Type-II fatty acid biosynthesis pathway (FAS-II) in Helicobacter pylori. FabX (red sphere) catalyzes the dehydrogenation and isomerization of the saturated acyl group on ACP (the fifth step in the elongation cycle) for cis-double bond introduction and UFA synthesis. The black and blue curves indicate the SFA and UFA synthesis processes, respectively, while the blue dashes indicate the absence of the conventional fabA gene in the genome of H. pylori. [picture] Figure S2. Bioactivity evaluation of FBX-1 derivatives at 10 μM and 1 μM in the FabX-FabI enzyme-coupled assay. [picture] Figure S3. Overexpression of FabX in strain BHKS211. BHKS210 (NSH57/Vec) and BHKS211 (NSH57/fabX) were cultured in BHI broth supplemented with 10% FCS to an OD600 of 0.3 and then harvested. RNA isolation, reverse transcription, and real-time PCR were performed as described in the EXPERIMENTAL METHODS section. The relative levels of fabX expression in BHKS211 compared to the control strain BHKS210 are represented. The data are the averages ± standard deviations from three independent experiments.

[2] = biological target: T1, FabX; assay: FabX-FabI coupled assay, NADH absorbance […] nm; format: biochemical
[3] = biological target: T1, FabX; assay: biochemical; parameters: FabX inhibition in multienzymatic cascade coupled to FabI, NADH consumption read-out; conditions: read-out: % inhibition
Text: To discover small molecule inhibitors targeting FabX, we performed protein thermal shift assay (PTSA) based high‐throughput screening against an in‐house chemical library of 11000 small molecule compounds, and established a multienzymatic cascade reaction system by incorporating the enoyl acyl carrier protein reductase FabI from H. pylori into the hit validation system, where FabI catalyzes the reduction of FabX catalytic product enoyl‐ACP in the fourth step of the elongation cycle, accompanying the elimination of NADH (Figure 2A,B). […] The subcloning, expression, and purification of FabX, FabI, and ACP from H. pylori, FabK from S. pneumoniae, and FabA from E. coli were described previously.^[ [19] ^] Briefly, fabX, fabI, fabK, and fabA genes were subcloned to pQE2 vector, while the Acp gene was subcloned to pET32a vector, respectively. The proteins were expressed in BL21(DE3) Rosetta cells, purified by using Ni‐NTA affinity column, HiTrap‐SP column, GE HiLoad 16/600 Superdex75 prep grade gel‐filtration column. The peaks from the gel‐filtration column were further pooled, concentrated, and the final concentration of the proteins was quantified by the Bradford reagent purchased from Bio‐Rad.

[4] = test system: T2, Helicobacter pylori BHKS 568; assay: microbe, parasite or virus in culture; conditions: BHKS568, read-out: MIC
T2 construct: BHKS568 (NSH57 IR0203::fabX ΔfabX) native fabX relocated to IR0203
Experimental: (§1) The sensitivity of H. pylori strains to various compounds was assessed by determining the MIC and evaluating the growth of the strains on the drug‐containing agar media. The MIC was measured using the broth microdilution assay as described previously.^[ [27] ^] Twofold serial dilutions of the test compounds were prepared using BHI broth supplemented with 10% FCS in 96‐well microtiter plates. Diluted H. pylori cultures, adjusted to a final concentration of 5 × 10^5 CFU mL^−1, were then added to each well. The cultures were incubated for 48–72 h in a microaerobic environment at 37 °C. The MIC was determined by visual inspection. H. pylori strains used in this study were cultured on brain heart infusion (BHI) broth (Oxoid, UK) or Columbia blood agar medium (Oxoid, UK) supplemented with 10% fetal calf serum (FCS). The cultures were incubated at 37 °C for 48–72 h under microaerobic environments in a double‐gas CO2 incubator (Binder, Germany). The wild‐type strains G27 and NSH57 used in this study were kindly provided by Prof. Nina R. Salama from the Fred Hutchinson Cancer Research Center (USA). Three clinical H. pylori strains (BYES129, BY924, and JIGC0009) were isolated from biopsy samples from three patients with gastritis or gastric cancer using standard protocols. Strains BHKS551 (NSH57 IR0203::fabA ΔfabX) and BHKS568 (NSH57 IR0203::fabX ΔfabX) were described previously.^[ [19] ^] The following 15 reference strains of different species were also used: Escherichia coli ATCC 25922, Klebsiella pneumoniae ATCC 35657, Pseudomonas aeruginosa PAO1, Salmonella enterica serovar Typhimurium ATCC 14028, Shigella dysenteriae Sd197, Acinetobacter baumannii ATCC 19606, Proteus mirabilis ATCC 29906, Enterobacter cloacae ATCC 13047, Stenotrophomonas maltophilia ATCC 51331, Bacillus subtilis 168, Enterococcus faecium ATCC 19434, Staphylococcus aureus ATCC 25923, Staphylococcus haemolyticus ATCC 29970, Listeria monocytogenes EGDe, and Morganella morganii ATCC 25830. These non‐Helicobacter bacterial strains were cultured as described previously.^[ [25] ^] We evaluated the antibacterial activities of selected compounds (IC 50 < 1 × 10^−6 M) against several H. pylori strains (Table S3∖, Supporting Information), particularly against strains BHKS551 and BHKS211 (the FabX overexpressed strain, hereinafter referred to as FabX^OE) to validate the on‐target effect in vivo. Note that FabX is overproduced 3.32‐fold in strain BHKS211 compared to the control strain BHKS210 carrying the empty vector (Figure S3, Supporting Information). […] This could be due to the fact that the carboxyl group of 8j readily deprotonates and acquires negative charge at physiological pH, which reduces its lipophilicity and prevents it from permeating the bacterial cell membrane. To address this issue, we employed a prodrug strategy and synthesized esters from 8j by attaching it to lipophilic alcohols (8p‐8u) or a lipophilic cation 6‐hydroxyhexyltriphenylphosphonium bromide (8v) (Figure 3). […] Compounds 8p‐8s were synthesized as shown in Scheme 1, while compounds 8t‐8v were synthesized as described in Scheme 3 . 8q was hydrolyzed with NaOH to yield 8j, which was subsequently reacted with various alcohols by Steglich esterification to produce compounds 8t‐8v.

[5] = test system: T3, Helicobacter pylori Hp129; assay: microbe, parasite or virus in culture; conditions: HP129, read-out: MIC
T3 construct: Hp129
Experimental: as §1

[6] = test system: T4, Helicobacter pylori BHKS 210; assay: microbe, parasite or virus in culture; conditions: BHKS210, read-out: MIC
T4 construct: BHKS210 (NSH57/empty vector pTM117) wild-type NSH57 with empty vector
Experimental: as §1

[7] = test system: T5, Helicobacter pylori G27; assay: microbe, parasite or virus in culture; conditions: G27, read-out: MIC
T5 construct: G27
Experimental: as §1

[8] = biological target: T1, FabX; assay: FabX-FabI coupled assay, NADH absorbance […] nm; format: biochemical; conditions: read-out: FabX enzymatic activity / 10 × 10^-6 M [%]

| SMILES | inhibition at 10 µM [1] | inhibition at 1 µM [1] | IC50 [2] | also measured |
| --- | --- | --- | --- | --- |
| O=S(=O)(Nc1cccc(I)c1)c1cccnc1Nc1ccc(Cl)cc1 [1c, 2-((4-chlorophenyl)amino)-N-(3-iodophenyl)pyridine-3-sulfonamide] | 23% |  |  |  |
| N#Cc1ccc(NS(=O)(=O)c2cccnc2Nc2ccc(Cl)cc2)cc1 [1d, 2-((4-chlorophenyl)amino)-N-(4-cyanophenyl)pyridine-3-sulfonamide] | 12% |  |  |  |
| N#Cc1cccc(NS(=O)(=O)c2cccnc2Nc2ccc(Cl)cc2)c1 [1e] | 88% | 31% |  |  |
| COc1ccc(NS(=O)(=O)c2cccnc2Nc2ccc(Cl)cc2)cc1 [1f] | 23% |  |  |  |
| COc1cccc(NS(=O)(=O)c2cccnc2Nc2ccc(Cl)cc2)c1 [1g] | 21% |  |  |  |
| CCOC(=O)c1cccc(NS(=O)(=O)c2cccnc2Nc2ccc(Cl)cc2)c1 [1h] | 35% |  |  |  |
| O=C(O)c1cccc(NS(=O)(=O)c2cccnc2Nc2ccc(Cl)cc2)c1 [1i] | 65% | 19% |  |  |
| C#Cc1cccc(NS(=O)(=O)c2cccnc2Nc2ccc(Cl)cc2)c1 [1j] | 63% |  |  |  |
| O=S(=O)(Nc1ccc(F)nc1)c1cccnc1Nc1ccc(Cl)cc1 [1k] | 12% |  |  |  |
| O=S(=O)(NCc1ccccc1)c1cccnc1Nc1ccc(Cl)cc1 [1l] | 25% | 12% |  |  |
| N#Cc1cccc(NS(=O)(=O)c2cccnc2Nc2ccc(Cl)cc2Cl)c1 [8c] | 100% | 77% | 625 ± 82 nM |  |
| O=c1[nH]c(-c2cccc(NS(=O)(=O)c3cccnc3Nc3ccc(Cl)cc3Cl)c2)no1 [8k] |  |  | 665 ± 85 nM |  |
| O=S(=O)(Nc1cccc(-c2nnn[nH]2)c1)c1cccnc1Nc1ccc(Cl)cc1Cl [8l] |  |  | 904 ± 177 nM |  |
| O=C1COc2ccc(NS(=O)(=O)c3cccnc3Nc3ccc(Cl)cc3Cl)cc2N1 [8m] |  |  | 249 ± 38 nM |  |
| O=S(=O)(Nc1cccc(O)c1)c1cccnc1Nc1ccc(Cl)cc1Cl [8n] |  |  | 945 ± 111 nM |  |
| COC(=O)c1cccc(NS(=O)(=O)c2cccnc2Nc2ccc(Cl)cc2Cl)c1 [8p, FBX-1991] |  |  | 158 ± 30 nM | inhibition at 1 µM [3]: 83%; inhibition at 10 µM [3]: 98%; MIC [4]: 16 µg/mL (≈ 35.4 µM); MIC [5]: 16 µg/mL (≈ 35.4 µM); MIC [6]: 16 µg/mL (≈ 35.4 µM); MIC [7]: 16 µg/mL (≈ 35.4 µM) |
| CCOC(=O)c1cccc(NS(=O)(=O)c2cccnc2Nc2ccc(Cl)cc2Cl)c1 [8q] |  |  | 552 ± 118 nM | inhibition at 1 µM [3]: 60%; inhibition at 10 µM [3]: 100%; MIC [4]: 16 µg/mL (≈ 34.3 µM); MIC [5]: 16 µg/mL (≈ 34.3 µM); MIC [6]: 32 µg/mL (≈ 68.6 µM); MIC [7]: 16 µg/mL (≈ 34.3 µM) |
| CC(C)OC(=O)c1cccc(NS(=O)(=O)c2cccnc2Nc2ccc(Cl)cc2Cl)c1 [8r] |  |  |  | MIC [4]: 32 µg/mL (≈ 66.6 µM); MIC [5]: 32 µg/mL (≈ 66.6 µM); MIC [6]: 32 µg/mL (≈ 66.6 µM); MIC [7]: 64 µg/mL (≈ 133 µM); inhibition at 10 µM [8]: 37% |
| O=C(OCCCCCC[P+](c1ccccc1)(c1ccccc1)c1ccccc1)c1cccc(NS(=O)(=O)c2cccnc2Nc2ccc(Cl)cc2Cl)c1 [8v] |  |  |  | MIC [4]: 16 µg/mL; MIC [6]: 16 µg/mL; MIC [7]: 32 µg/mL; inhibition at 10 µM [8]: 42% |
| N#Cc1cccc(NS(=O)(=O)c2ccncc2Nc2ccc(Cl)cc2Cl)c1 [11a, N-(3-cyanophenyl)-3-((2,4-dichlorophenyl)amino)pyridine-4-sulfonamide] | 100% | 100% |  | IC50 [1]: 480 ± 61 nM |
| N#Cc1cccc(NS(=O)(=O)c2ncccc2Nc2ccc(Cl)cc2Cl)c1 [11c, N-(3-cyanophenyl)-3-((2,4-dichlorophenyl)amino)pyridine-2-sulfonamide] | 60% | 17% |  |  |
| N#Cc1cccc(NS(=O)(=O)c2ccccc2Nc2ccc(Cl)cc2Cl)c1 [11d, N-(3-cyanophenyl)-2-((2,4-dichlorophenyl)amino)benzenesulfonamide] | 94% | 60% |  | IC50 [1]: 2380 ± 225 nM |
| O=S(=O)(Nc1ccc(F)cc1)c1cccnc1Nc1ccc(Cl)cc1 [FBX-1] |  |  | 9700 ± 1000 nM |  |
